PubChem BioAssay AID248 (DTP/NCI, 2004)
Where “and” joins values, the source holds several entries; their conditions need not be identical. Equal values may be shown once. Toxic doses and inconclusive results are not listed. Cut-off read from the data, not from the text of the source: active = T/C of 150% or more; inactive = T/C below 125%.

System: L1210 leukemia ip in BDF1 mice, survival T/C
Test: NCI In Vivo Anticancer Drug Screen. Data for tumor model L1210 Leukemia (intraperitoneal) in B6D2F1 (BDF1) mice
Conditions: endpoint: mean survival time, higher = longer survival
Outline: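 Ratio derived from survival: compound-dosed mice over vehicle-dosed mice, all bearing a transplantable tumor.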

[1] = dose: 50.0 mg/kg/injection, schedule: Q01DX009 (ip), vehicle: saline with Tween-80
[2] = dose: 100.0 mg/kg/injection, schedule: Q01DX009 (ip), vehicle: saline with Tween-80
[3] = dose: 25.0 mg/kg/injection, schedule: Q04DX003 (ip), vehicle: saline
[4] = dose: 50.0 mg/kg/injection, schedule: Q04DX003 (ip), vehicle: saline
[5] = dose: 100.0 mg/kg/injection, schedule: Q04DX003 (ip), vehicle: saline with Tween-80
[6] = dose: 100.0 mg/kg/injection, schedule: Q04DX003 (ip), vehicle: saline
[7] = dose: 50.0 mg/kg/injection, schedule: Q01DX001 (ip), vehicle: carboxymethylcellulose (CMC)
[8] = dose: 100.0 mg/kg/injection, schedule: Q01DX001 (ip), vehicle: carboxymethylcellulose (CMC)
[9] = dose: 400.0 mg/kg/injection, schedule: Q01DX001 (ip), vehicle: carboxymethylcellulose (CMC)
[10] = dose: 100.0 mg/kg/injection, schedule: Q01DX001 (ip), vehicle: saline
[11] = dose: 200.0 mg/kg/injection, schedule: Q01DX001 (ip), vehicle: saline
[12] = dose: 200.0 mg/kg/injection, schedule: Q01DX001 (ip), vehicle: carboxymethylcellulose (CMC)
[13] = dose: 25.0 mg/kg/injection, schedule: Q01DX009 (ip), vehicle: saline with Tween-80

Measured: T/C

CCOC(=O)c1ccc(N2C(=O)CC(Sc3ccccc3N)C2=O)cc1 (configuration not stated)
inactive: dose: 100.0 mg/kg/injection, schedule: Q01DX005 (ip), vehicle: Klucel (hydroxypropylcellulose) (HPC) 97 % of control | dose: 100.0 mg/kg/injection, schedule: Q04DX002 (ip), vehicle: Klucel (hydroxypropylcellulose) (HPC) 103 % of control | dose: 200.0 mg/kg/injection, schedule: Q01DX005 (ip), vehicle: Klucel (hydroxypropylcellulose) (HPC) 102 % of control | dose: 200.0 mg/kg/injection, schedule: Q04DX002 (ip), vehicle: Klucel (hydroxypropylcellulose) (HPC) 103 % of control | dose: 400.0 mg/kg/injection, schedule: Q01DX005 (ip), vehicle: Klucel (hydroxypropylcellulose) (HPC) 91 % of control | dose: 400.0 mg/kg/injection, schedule: Q04DX002 (ip), vehicle: Klucel (hydroxypropylcellulose) (HPC) 113 % of control

Cc1cc(OC(=O)Nc2ccc(Cl)cc2C(F)(F)F)c(C)cc1Cl
inactive: [1] 98 % of control | [2] 95 % of control | dose: 200.0 mg/kg/injection, schedule: Q01DX009 (ip), vehicle: saline with Tween-80 109 % of control

CCOC(C(=O)OC1CCN(C)CC1)(c1ccccc1)c1ccccc1
inactive: [3] 97 % of control | [4] 96 % of control | [5] 93 % of control | [6] 97 % of control

NC(=O)C1CC=CCC1C(=O)O (configuration not stated)
inactive: dose: 100.0 mg/kg/injection, schedule: Q01DX009 (ip), vehicle: other 88 % of control | dose: 200.0 mg/kg/injection, schedule: Q01DX009 (ip), vehicle: other 100 % of control | dose: 400.0 mg/kg/injection, schedule: Q01DX009 (ip), vehicle: other 92 % of control

CCOC(=O)c1cnc(SCCN2C(=O)c3ccccc3C2=O)[nH]c1=O
inactive: dose: 100.0 mg/kg/injection, schedule: Q04DX003 (ip), vehicle: gum acacia 100 % of control | dose: 200.0 mg/kg/injection, schedule: Q04DX003 (ip), vehicle: gum acacia 102 % of control | dose: 400.0 mg/kg/injection, schedule: Q04DX003 (ip), vehicle: gum acacia 97 % of control

CN(C)c1ccc(C#N)cc1
inactive: dose: 1.5 mg/kg/injection, schedule: Q04DX002 (ip), vehicle: Klucel (hydroxypropylcellulose) (HPC) 107 % of control | dose: 3.1 mg/kg/injection, schedule: Q04DX002 (ip), vehicle: Klucel (hydroxypropylcellulose) (HPC) 107 % of control | dose: 6.25 mg/kg/injection, schedule: Q04DX002 (ip), vehicle: Klucel (hydroxypropylcellulose) (HPC) 97 % of control and 111 % of control

N#CC1(Nc2ccc(-c3ccc(NC4(C#N)CCCC4)cc3)cc2)CCCC1
inactive: [7] 90 % of control | [8] 95 % of control | [9] 88 % of control

CCC(C)c1ccc(O)c(CN(CCO)CCO)c1 (configuration not stated)
inactive: [10] 105 % of control | [11] 101 % of control

Nc1nc(-c2ccc3c(c2)Sc2ccccc2O3)cs1
inactive: dose: 75.0 mg/kg/injection, schedule: Q04DX003 (ip), vehicle: saline 93 % of control | dose: 150.0 mg/kg/injection, schedule: Q04DX003 (ip), vehicle: saline 91 % of control | dose: 300.0 mg/kg/injection, schedule: Q04DX003 (ip), vehicle: saline 91 % of control

CC(=Nc1ccccc1)C1=C(O)C(CC(C)C)NC1=O (configuration not stated)
inactive: [7] 95 % of control | [8] 104 % of control | [12] 101 % of control | [9] 101 % of control

CC(=O)c1cccc([N+](=O)[O-])c1O
inactive: [10] 95 % of control | [11] 94 % of control | dose: 400.0 mg/kg/injection, schedule: Q01DX001 (ip), vehicle: saline 91 % of control

N#CCCCC(=O)c1ccccc1
inactive: [13] 96 % of control | [1] 102 % of control | [2] 92 % of control

CCN(CC)CCOc1cc(C)c2cc(Cc3ccccc3)ccc2n1
inactive: dose: 100.0 mg/kg/injection, schedule: Q01DX001 (ip), vehicle: other 104 % of control | dose: 200.0 mg/kg/injection, schedule: Q01DX001 (ip), vehicle: other 96 % of control

CC(C)[N+]1=C(/C=C/c2ccc3cccnc3c2O)C(C)(C)c2ccccc21
inactive: [7] 97 % of control | [8] 103 % of control | [12] 95 % of control | [9] 95 % of control

CCNc1nc(N)nc(Cl)c1N
inactive: [5] 107 % of control | dose: 200.0 mg/kg/injection, schedule: Q04DX003 (ip), vehicle: saline with Tween-80 100 % of control | dose: 400.0 mg/kg/injection, schedule: Q04DX003 (ip), vehicle: saline with Tween-80 105 % of control

Cc1cc(SC#N)ccc1O
inactive: dose: 3.0 mg/kg/injection, schedule: Q01DX009 (ip), vehicle: saline with Tween-80 94 % of control | dose: 6.0 mg/kg/injection, schedule: Q01DX009 (ip), vehicle: saline with Tween-80 102 % of control | dose: 12.0 mg/kg/injection, schedule: Q01DX009 (ip), vehicle: saline with Tween-80 102 % of control | [13] 102 % of control | dose: 25.0 mg/kg/injection, schedule: Q04DX002 (ip), vehicle: other 93 % of control | dose: 50.0 mg/kg/injection, schedule: Q04DX002 (ip), vehicle: other 93 % of control | dose: 100.0 mg/kg/injection, schedule: Q04DX002 (ip), vehicle: other 97 % of control

O=CC(OC(=O)c1ccccc1)C(OC(=O)c1ccccc1)C(CO)OC(=O)c1ccccc1 (configuration not stated)
inactive: dose: 100.0 mg/kg/injection, schedule: Q01DX001 (ip), vehicle: Klucel (hydroxypropylcellulose) (HPC) 106 % of control | dose: 200.0 mg/kg/injection, schedule: Q01DX001 (ip), vehicle: Klucel (hydroxypropylcellulose) (HPC) 95 % of control | dose: 400.0 mg/kg/injection, schedule: Q01DX001 (ip), vehicle: Klucel (hydroxypropylcellulose) (HPC) 98 % of control

c1ccn2cncc2c1
inactive: dose: 75.0 mg/kg/injection, schedule: Q01DX001 (ip), vehicle: saline 95 % of control | dose: 150.0 mg/kg/injection, schedule: Q01DX001 (ip), vehicle: saline 106 % of control | dose: 300.0 mg/kg/injection, schedule: Q01DX001 (ip), vehicle: saline 102 % of control

CCCCCCCCCCCCCCC[n+]1cccc(C#N)c1
inactive: dose: 5.0 mg/kg/injection, schedule: Q01DX009 (ip), vehicle: saline 104 % of control | dose: 10.0 mg/kg/injection, schedule: Q01DX001 (ip), vehicle: saline 87 % of control | dose: 10.0 mg/kg/injection, schedule: Q01DX009 (ip), vehicle: saline 96 % of control | dose: 10.0 mg/kg/injection, schedule: Q04DX003 (ip), vehicle: saline 90 % of control | dose: 20.0 mg/kg/injection, schedule: Q01DX001 (ip), vehicle: saline 95 % of control and 86 % of control | dose: 20.0 mg/kg/injection, schedule: Q01DX009 (ip), vehicle: saline 107 % of control | dose: 20.0 mg/kg/injection, schedule: Q04DX003 (ip), vehicle: saline 95 % of control | dose: 40.0 mg/kg/injection, schedule: Q01DX001 (ip), vehicle: saline 101 % of control and 90 % of control | dose: 40.0 mg/kg/injection, schedule: Q04DX003 (ip), vehicle: saline 94 % of control

c1ccc(NC2=NCCO2)cc1
inactive: dose: 25.0 mg/kg/injection, schedule: Q04DX002 (ip), vehicle: saline with Tween-80 107 % of control | dose: 50.0 mg/kg/injection, schedule: Q04DX002 (ip), vehicle: saline with Tween-80 90 % of control | dose: 100.0 mg/kg/injection, schedule: Q04DX002 (ip), vehicle: saline with Tween-80 96 % of control

C=C(C)C1C=CC(O)=C2C(=O)CCC(C)C21C (configuration not stated)
inactive: [3] 100 % of control | [4] 100 % of control | [6] 100 % of control
